From the supplement of paper PMC10307832

Legend:
Test in all cases: relative viability (nuclei count vs DMSO), 5 days (fraction); higher = more cells survive
H3255 = tested on: H3255
Method in brief: (§1)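 Relative viability is defined as nuclei in treated wells over nuclei in vehicle wells. Duplicate plates were run and medians reported. Lung cancer cell lines in 1536-well plates were dosed by pin tool one day after seeding, with one drug or with a fixed anchor-drug dose plus five library-drug doses (not always all listed) in √10 steps, and nuclei were counted after 5 days.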

COR-L23 = tested on: COR-L23
Method in brief: as §1

SW 1573 = tested on: SW 1573
Method in brief: as §1

NCI-H23 = tested on: NCI-H23
Method in brief: as §1

PC-3 [JPC-3] = tested on: PC-3 [JPC-3]
Method in brief: as §1

LCLC-103H = tested on: LCLC-103H
Method in brief: as §1

NCI-H650 = tested on: NCI-H650
Method in brief: as §1

NCI-H1651 = tested on: NCI-H1651
Method in brief: as §1

NCI-H1563 = tested on: NCI-H1563
Method in brief: as §1

LU99A = tested on: LU99A
Method in brief: as §1

NCI-H2347 = tested on: NCI-H2347
Method in brief: as §1

NCI-H1793 = tested on: NCI-H1793
Method in brief: as §1

NCI-H1650 = tested on: NCI-H1650
Method in brief: as §1

LCLC-97TM1 = tested on: LCLC-97TM1
Method in brief: as §1

201T = tested on: 201T
Method in brief: as §1

LK-2 = tested on: LK-2
Method in brief: as §1

NCI-H838 = tested on: NCI-H838
Method in brief: as §1

RERF-LC-KJ = tested on: RERF-LC-KJ
Method in brief: as §1

PC-14 = tested on: PC-14
Method in brief: as §1

NCI-H727 = tested on: NCI-H727
Method in brief: as §1

A-427 = tested on: A-427
Method in brief: as §1

NCI-H1944 = tested on: NCI-H1944
Method in brief: as §1

NCI-H460 = tested on: NCI-H460
Method in brief: as §1

With `Clc1ccc(Nc2nnc(Cc3ccncc3)c3ccccc23)cc1` [Vatalanib] + CS(=O)(=O)N1CCN(Cc2cc3nc(-c4cccc5[nH]ncc45)nc(N4CCOCC4)c3s2)CC1 [Pictilisib] (partner 1 µM) the relative viability (H3255; first compound 0.04 µM) was 0.43, the relative viability (H3255; first compound 0.1265 µM) was 0.52 and the relative viability (H3255; first compound 0.4 µM) was 0.311. The relative viability (H3255; first compound 1.265 µM) was 0.384, the relative viability (H3255; first compound 4 µM) was 0.438 and the relative viability (COR-L23; first compound 0.04 µM) was 0.992. The relative viability (COR-L23; first compound 0.1265 µM) was 0.745, the relative viability (COR-L23; first compound 0.4 µM) was 0.854 and the relative viability (COR-L23; first compound 1.265 µM) was 0.758. The relative viability (COR-L23; first compound 4 µM) was 0.64, the relative viability (SW 1573; first compound 0.04 µM) was 0.596 and the relative viability (SW 1573; first compound 0.1265 µM) was 0.525. It also gave a relative viability (SW 1573; first compound 0.4 µM) of 0.544, a relative viability (SW 1573; first compound 1.265 µM) of 0.408 and a relative viability (SW 1573; first compound 4 µM) of 0.556. It also gave a relative viability (NCI-H23; first compound 0.04 µM) of 0.45, a relative viability (NCI-H23; first compound 0.1265 µM) of 0.412 and a relative viability (NCI-H23; first compound 0.4 µM) of 0.511. For the same compound, the relative viability (NCI-H23; first compound 1.265 µM) was 0.436, the relative viability (NCI-H23; first compound 4 µM) was 0.552 and the relative viability (PC-3 [JPC-3]; first compound 0.04 µM) was 0.796. The relative viability (PC-3 [JPC-3]; first compound 0.1265 µM) was 0.715, the relative viability (PC-3 [JPC-3]; first compound 0.4 µM) was 0.645 and the relative viability (PC-3 [JPC-3]; first compound 1.265 µM) was 0.726. For the same compound, the relative viability (PC-3 [JPC-3]; first compound 4 µM) was 0.752, the relative viability (LCLC-103H; first compound 0.04 µM) was 0.6 and the relative viability (LCLC-103H; first compound 0.1265 µM) was 0.606. It also gave a relative viability (LCLC-103H; first compound 0.4 µM) of 0.55, a relative viability (LCLC-103H; first compound 1.265 µM) of 0.596 and a relative viability (LCLC-103H; first compound 4 µM) of 0.714. It also gave a relative viability (NCI-H650; first compound 0.04 µM) of 0.875, a relative viability (NCI-H650; first compound 0.1265 µM) of 0.914 and a relative viability (NCI-H650; first compound 1.265 µM) of 0.868. The relative viability (NCI-H650; first compound 4 µM) was 0.909, the relative viability (NCI-H1651; first compound 0.04 µM) was 0.646 and the relative viability (NCI-H1651; first compound 0.1265 µM) was 0.276. The relative viability (NCI-H1651; first compound 0.4 µM) was 0.642, the relative viability (NCI-H1651; first compound 1.265 µM) was 0.511 and the relative viability (NCI-H1651; first compound 4 µM) was 0.594. For the same compound, the relative viability (NCI-H1563; first compound 0.04 µM) was 0.634, the relative viability (NCI-H1563; first compound 0.1265 µM) was 0.677 and the relative viability (NCI-H1563; first compound 0.4 µM) was 0.685. The relative viability (NCI-H1563; first compound 1.265 µM) was 0.673, the relative viability (NCI-H1563; first compound 4 µM) was 0.652 and the relative viability (LU99A; first compound 0.04 µM) was 0.34. The relative viability (LU99A; first compound 0.1265 µM) was 0.306, the relative viability (LU99A; first compound 0.4 µM) was 0.375 and the relative viability (LU99A; first compound 1.265 µM) was 0.306. The relative viability (LU99A; first compound 4 µM) was 0.312, the relative viability (NCI-H2347; first compound 0.04 µM) was 0.709 and the relative viability (NCI-H2347; first compound 0.1265 µM) was 0.723. It also gave a relative viability (NCI-H2347; first compound 0.4 µM) of 0.409, a relative viability (NCI-H2347; first compound 1.265 µM) of 0.92 and a relative viability (NCI-H2347; first compound 4 µM) of 0.319. It also gave a relative viability (NCI-H1793; first compound 0.04 µM) of 0.218, a relative viability (NCI-H1793; first compound 0.1265 µM) of 0.326 and a relative viability (NCI-H1793; first compound 0.4 µM) of 0.382. It also gave a relative viability (NCI-H1793; first compound 1.265 µM) of 0.293, a relative viability (NCI-H1793; first compound 4 µM) of 0.347 and a relative viability (NCI-H1650; first compound 0.04 µM) of 0.612. For the same compound, the relative viability (NCI-H1650; first compound 0.1265 µM) was 0.556, the relative viability (NCI-H1650; first compound 0.4 µM) was 0.578 and the relative viability (NCI-H1650; first compound 1.265 µM) was 0.55. For the same compound, the relative viability (NCI-H1650; first compound 4 µM) was 0.592, the relative viability (LCLC-97TM1; first compound 0.04 µM) was 0.136 and the relative viability (LCLC-97TM1; first compound 0.1265 µM) was 0.243. It also gave a relative viability (LCLC-97TM1; first compound 0.4 µM) of 0.187, a relative viability (LCLC-97TM1; first compound 1.265 µM) of 0.19 and a relative viability (LCLC-97TM1; first compound 4 µM) of 0.195. The relative viability (201T; first compound 0.04 µM) was 0.694, the relative viability (201T; first compound 0.1265 µM) was 0.667 and the relative viability (201T; first compound 0.4 µM) was 0.706. The relative viability (201T; first compound 1.265 µM) was 0.663, the relative viability (201T; first compound 4 µM) was 0.722 and the relative viability (LK-2; first compound 0.04 µM) was 0.531. The relative viability (LK-2; first compound 0.1265 µM) was 0.561, the relative viability (LK-2; first compound 1.265 µM) was 0.651 and the relative viability (LK-2; first compound 4 µM) was 0.569. The relative viability (NCI-H838; first compound 0.04 µM) was 0.477, the relative viability (NCI-H838; first compound 0.1265 µM) was 0.41 and the relative viability (NCI-H838; first compound 0.4 µM) was 0.518. It also gave a relative viability (NCI-H838; first compound 1.265 µM) of 0.453, a relative viability (NCI-H838; first compound 4 µM) of 0.467 and a relative viability (RERF-LC-KJ; first compound 0.04 µM) of 0.486. The relative viability (RERF-LC-KJ; first compound 0.1265 µM) was 0.579, the relative viability (RERF-LC-KJ; first compound 0.4 µM) was 0.745 and the relative viability (RERF-LC-KJ; first compound 1.265 µM) was 0.422. It also gave a relative viability (RERF-LC-KJ; first compound 4 µM) of 0.481, a relative viability (PC-14; first compound 0.04 µM) of 0.832 and a relative viability (PC-14; first compound 0.1265 µM) of 0.712. It also gave a relative viability (PC-14; first compound 0.4 µM) of 0.693, a relative viability (PC-14; first compound 1.265 µM) of 0.69 and a relative viability (PC-14; first compound 4 µM) of 0.679. The relative viability (NCI-H727; first compound 0.04 µM) was 0.421, the relative viability (NCI-H727; first compound 0.1265 µM) was 0.355 and the relative viability (NCI-H727; first compound 0.4 µM) was 0.359. It also gave a relative viability (NCI-H727; first compound 1.265 µM) of 0.399, a relative viability (NCI-H727; first compound 4 µM) of 0.433 and a relative viability (A-427; first compound 0.04 µM) of 0.667. It also gave a relative viability (A-427; first compound 0.1265 µM) of 0.671, a relative viability (A-427; first compound 0.4 µM) of 0.736 and a relative viability (A-427; first compound 1.265 µM) of 0.624. It also gave a relative viability (A-427; first compound 4 µM) of 0.677, a relative viability (NCI-H1944; first compound 0.04 µM) of 0.351 and a relative viability (NCI-H1944; first compound 0.1265 µM) of 0.316. The relative viability (NCI-H1944; first compound 0.4 µM) was 0.37, the relative viability (NCI-H1944; first compound 1.265 µM) was 0.356 and the relative viability (NCI-H1944; first compound 4 µM) was 0.352. The relative viability (NCI-H460; first compound 0.04 µM) was 0.361, the relative viability (NCI-H460; first compound 0.1265 µM) was 0.356 and the relative viability (NCI-H460; first compound 0.4 µM) was 0.378. The relative viability (NCI-H460; first compound 1.265 µM) was 0.352 and the relative viability (NCI-H460; first compound 4 µM) was 0.312.
